Where two headings read alike, the source gives them in different places.
What was measured:
murine SMOX [1] = target: T1, murine SMOX (Mus musculus, UniProt Q99K82); assay: Inhibition of SMOX activity, spermine as substrate; assay type: biochemical; details: for SMOX Kmapp/Km0: 50 μM compound, relative to control
murine PAOX = murine PAOX (Mus musculus, UniProt Q8C0L6); assay: Inhibition of PAOX activity, N1AcSPM as substrate; assay type: biochemical; details: for PAOX Kmapp/Km0: 50 μM compound, relative to control; for PAOX Kmapp: Km of N1AcSPM in the presence of 50 μM compound
[2] = target: PAOX activity in HT22 cells (Mus musculus, UniProt Q8C0L6); assay: PAOX activity in whole HT22 cells; assay type: cell-based
ODC = details: at a concentration of 10 μM; cited from earlier work
[3] = cited from earlier work
SSAT = details: at a concentration of 10 μM; cited from earlier work
murine SMOX [4] = target: T1, murine SMOX; details: read-out: SMOX Ki; purified murine SMOX; cited from earlier work
human MAO A = details: cited from earlier work
MAOs = assay: Amine oxidase activity in HT22 cell lysate, tyramine as substrate; assay type: biochemical, mouse; details: tyramine 1 mM, after pre-incubation with inhibitor
[5] = Km of SPM in the presence of 50 μM compound

Chain of murine PAOX (Q8C0L6 whole entry): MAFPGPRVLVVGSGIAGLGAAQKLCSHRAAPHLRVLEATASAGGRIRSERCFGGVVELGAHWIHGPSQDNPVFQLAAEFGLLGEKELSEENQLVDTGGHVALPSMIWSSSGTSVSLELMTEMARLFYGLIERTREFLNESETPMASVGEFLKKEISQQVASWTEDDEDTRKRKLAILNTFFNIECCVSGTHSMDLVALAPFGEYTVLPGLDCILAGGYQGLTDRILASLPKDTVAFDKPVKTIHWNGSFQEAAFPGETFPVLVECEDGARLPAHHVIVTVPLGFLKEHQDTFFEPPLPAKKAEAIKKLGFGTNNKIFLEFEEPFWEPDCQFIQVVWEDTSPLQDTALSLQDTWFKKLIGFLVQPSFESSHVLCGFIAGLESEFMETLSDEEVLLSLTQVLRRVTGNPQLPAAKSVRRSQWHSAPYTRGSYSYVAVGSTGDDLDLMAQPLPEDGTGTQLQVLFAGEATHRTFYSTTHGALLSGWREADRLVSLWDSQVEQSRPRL
T1 sequence (Q99K82 whole entry): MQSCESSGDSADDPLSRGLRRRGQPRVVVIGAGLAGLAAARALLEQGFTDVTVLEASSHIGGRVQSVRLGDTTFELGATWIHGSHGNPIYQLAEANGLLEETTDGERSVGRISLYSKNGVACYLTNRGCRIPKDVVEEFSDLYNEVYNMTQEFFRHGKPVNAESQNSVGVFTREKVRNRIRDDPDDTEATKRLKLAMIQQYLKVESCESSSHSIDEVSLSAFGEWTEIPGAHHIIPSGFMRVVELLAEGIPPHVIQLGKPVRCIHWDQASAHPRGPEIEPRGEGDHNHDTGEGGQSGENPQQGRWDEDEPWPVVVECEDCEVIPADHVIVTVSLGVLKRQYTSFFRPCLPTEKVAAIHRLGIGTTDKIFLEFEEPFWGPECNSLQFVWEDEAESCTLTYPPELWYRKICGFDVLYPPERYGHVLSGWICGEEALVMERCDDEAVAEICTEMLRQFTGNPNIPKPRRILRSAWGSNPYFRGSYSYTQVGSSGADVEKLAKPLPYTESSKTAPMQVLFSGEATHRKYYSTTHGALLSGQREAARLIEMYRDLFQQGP
Chain of PAOX activity in HT22 cells (Q8C0L6 whole entry): as the sequence (Q8C0L6 whole entry) above

Structure (SMILES) | Ki (murine SMOX [1]) [µM] | PAOX Kmapp/Km0 (murine PAOX) | PAOX Kmapp (murine PAOX) [µM] | SMOX Kmapp/Km0 (murine SMOX [1]) | SMOX Kmapp (murine SMOX [1]; [5]) [µM] | also measured
[H]/N=C(\N/C(=N/[H])NCCCCCCNC(=N)NC(=N)Nc1ccc(Cl)cc1)Nc1ccc(Cl)cc1 [Chlorhexidine, chlorhexidine, reference compound] | 3.8 ± 0.2 |  |  |  |  | SMOX Kmapp (murine SMOX [1]): 1402 ± 124 µM
c1ccc(CNCCCCCCCCCCCCNCc2ccccc2)cc1 [Compound 9, N1,N^12-dibenzyldodecanediamine] |  | 108 | 41 ± 221 | 2.3 | 1135 ± 141 | 
COc1ccccc1CNCCCCCCNCCCCCCCCNCCCCCCNCc1ccccc1OC [Compound 10, Methoctramine] | 1.2 ± 0.1 |  |  | 18 | 8940 ± 1600 | IC50 [2]: 0.16 ± 0.01 µM; IC50 in HT22 cells relative to Ki of recombinant enzyme ([2]; IC50/Ki): about 16 times; Ki (murine PAOX): 0.01 ± 0.0015 µM; Mode of inhibition of PAOX (murine PAOX; double reciprocal plots): competitive inhibitors; Effect on ODC (ODC): did not significantly affect; Cytotoxicity [3]: low cytotoxicity; Effect on SSAT (SSAT): did not significantly affect; Mode of inhibition of SMOX (murine SMOX [1]; double reciprocal plots): competitive inhibitors
COc1ccccc1CN(C)CCCCCC(=O)N(C)CCCCCCCCN(C)C(=O)CCCCCN(C)Cc1ccccc1OC [Compound 14, Caproctamine] |  | 112 | 43 ± 9 | 1.21 | 598 ± 156 | 
NCCCCCCCCCCCCN [DIADO, 1,12-diaminododecane, reference compound] |  | 9 | 3.40 ± 0.26 | 1.2 | 600 ± 100 | Ki (murine SMOX [4]): > 1000 µM; Behaviour towards MAO A (human MAO A): excellent substrate
C#CCN(C)Cc1ccccc1 [pargyline] |  |  |  |  |  | Activity with tyramine with respect to control sample (MAOs): 2%

From paper PMC6407594 (Journal of Enzyme Inhibition and Medicinal Chemistry, 2019)
